Measured values from PMC8086052 (Japanese Journal of Clinical Oncology, 2021).
“Also recorded” adds a separate entry of the source. Like-named read-outs stand apart in the source and are kept apart here.

Columns and labels:
[1] = tested on: non-Japanese patients with advanced solid tumours; conditions: phase I studies in USA and Europe; cited from earlier work
[2] = tested on: Japanese patients with advanced solid tumours; conditions: for Tolerability: 200 or 300 mg/day, Japanese patients with advanced solid tumours; for Patients with dose-limiting toxicity (DLT) in cycle 1: cohort 2, 300 mg/day (n = 6)
[3] = Plasma pharmacokinetics of niraparib and M1, cycle 1 days 1 and 21; type: in vivo, human; conditions: for AUC(0-t) / Cmax: oral; for Cmax / Cmin: geometric mean (SD)
[4] = tested on: newly diagnosed advanced ovarian cancer; conditions: regardless of presence or absence of HRd; cited from earlier work
[5] = cited from earlier work
[6] = cancer patients; cited from earlier work
[7] = tested on: metastatic or locally advanced solid tumours
[8] = tested on: platinum-sensitive recurrent ovarian cancer; conditions: cited from earlier work
[9] = Niraparib 200 mg/day (n = 3), Any grade
[10] = Niraparib 200 mg/day (n = 3), Grade 3/4
[11] = Niraparib 300 mg/day (n = 6), Any grade
[12] = Niraparib 300 mg/day (n = 6), Grade 3/4
[13] = cohort 2, 300 mg/day, listed as niraparib
[14] = cohort 2, 300 mg/day, three patients

SMILES: NC(=O)c1cccc2cn(-c3ccc([C@@H]4CCCNC4)cc3)nc12 [Niraparib, niraparib]
- maximum tolerated dose (MTD) [1]: 300 mg once daily
- Time to recovery from grade 4 thrombocytopenia / platelet count decreased ([2]; 300 mg/day cohort): ~ 10 days
- Patients with grade 4 thrombocytopenia or platelet count decreased ([2]; 300 mg/day cohort, day 14 of cycle 1 and day 8 of cycle 2): two patients
- AEs of special interest (myelodysplastic syndrome, acute myeloid leukaemia, hypertensive crisis) ([2]; 200 and 300 mg/day): no AEs of special interest
- Tolerability [2]: tolerable
- Tolerability ([2]; listed as niraparib): generally safe and tolerable
- Patients with events: ALT increased [2, 9]: 0 n (%)
- Patients with events: AST increased [2, 9]: 0 n (%)
- Patients with events: Anaemia [2, 9]: 0 n (%)
- Patients with events: Any TEAE [2, 9]: 3 (100.0) n (%)
- Patients with events: Blood ALP increased [2, 9]: 1 (33.3) n (%)
- Patients with events: Blood creatinine increased [2, 9]: 1 (33.3) n (%)
- Patients with events: Chest pain [2, 9]: 0 n (%)
- Patients with events: Constipation [2, 9]: 1 (33.3) n (%)
- Patients with events: Decreased appetite [2, 9]: 2 (66.7) n (%)
- Patients with events: Diabetes mellitus [2, 9]: 0 n (%)
- Patients with events: Diarrhoea [2, 9]: 0 n (%)
- Patients with events: Fatigue [2, 9]: 2 (66.7) n (%)
- Patients with events: Febrile neutropenia [2, 9]: 0 n (%)
- Patients with events: GGT increased [2, 9]: 0 n (%)
- Patients with events: Hypertension [2, 9]: 0 n (%)
- Patients with events: Malaise [2, 9]: 1 (33.3) n (%)
- Patients with events: Nausea [2, 9]: 1 (33.3) n (%)
- Patients with events: Platelet count decreased [2, 9]: 1 (33.3) n (%)
- Patients with events: Pyelonephritis [2, 9]: 0 n (%)
- Patients with events: Thrombocytopenia [2, 9]: 0 n (%)
- Patients with events: Vomiting [2, 9]: 2 (66.7) n (%)
- Patients with events: White blood cell count decreased [2, 9]: 1 (33.3) n (%)
- Patients with events: ALT increased [2, 10]: 0 n (%)
- Patients with events: AST increased [2, 10]: 0 n (%)
- Patients with events: Anaemia [2, 10]: 0 n (%)
- Patients with events: Any TEAE [2, 10]: 1 (33.3) n (%)
- Patients with events: Blood ALP increased [2, 10]: 1 (33.3) n (%)
- Patients with events: Blood creatinine increased [2, 10]: 0 n (%)
- Patients with events: Chest pain [2, 10]: 0 n (%)
- Patients with events: Constipation [2, 10]: 0 n (%)
- Patients with events: Decreased appetite [2, 10]: 0 n (%)
- Patients with events: Diabetes mellitus [2, 10]: 0 n (%)
- Patients with events: Diarrhoea [2, 10]: 0 n (%)
- Patients with events: Fatigue [2, 10]: 0 n (%)
- Patients with events: Febrile neutropenia [2, 10]: 0 n (%)
- Patients with events: GGT increased [2, 10]: 0 n (%)
- Patients with events: Hypertension [2, 10]: 0 n (%)
- Patients with events: Malaise [2, 10]: 0 n (%)
- Patients with events: Nausea [2, 10]: 0 n (%)
- Patients with events: Platelet count decreased [2, 10]: 0 n (%)
- Patients with events: Pyelonephritis [2, 10]: 0 n (%)
- Patients with events: Thrombocytopenia [2, 10]: 0 n (%)
- Patients with events: Vomiting [2, 10]: 0 n (%)
- Patients with events: White blood cell count decreased [2, 10]: 1 (33.3) n (%)
- Patients with events: ALT increased [2, 11]: 3 (50.0) n (%)
- Patients with events: AST increased [2, 11]: 5 (83.3) n (%)
- Patients with events: Anaemia [2, 11]: 3 (50.0) n (%)
- Patients with events: Any TEAE [2, 11]: 6 (100.0) n (%)
- Patients with events: Blood ALP increased [2, 11]: 4 (66.7) n (%)
- Patients with events: Blood creatinine increased [2, 11]: 1 (16.7) n (%)
- Patients with events: Chest pain [2, 11]: 2 (33.3) n (%)
- Patients with events: Constipation [2, 11]: 2 (33.3) n (%)
- Patients with events: Decreased appetite [2, 11]: 2 (33.3) n (%)
- Patients with events: Diabetes mellitus [2, 11]: 1 (16.7) n (%)
- Patients with events: Diarrhoea [2, 11]: 2 (33.3) n (%)
- Patients with events: Fatigue [2, 11]: 1 (16.7) n (%)
- Patients with events: Febrile neutropenia [2, 11]: 1 (16.7) n (%)
- Patients with events: GGT increased [2, 11]: 3 (50.0) n (%)
- Patients with events: Hypertension [2, 11]: 2 (33.3) n (%)
- Patients with events: Malaise [2, 11]: 2 (33.3) n (%)
- Patients with events: Nausea [2, 11]: 4 (66.7) n (%)
- Patients with events: Platelet count decreased [2, 11]: 5 (83.3) n (%)
- Patients with events: Pyelonephritis [2, 11]: 1 (16.7) n (%)
- Patients with events: Thrombocytopenia [2, 11]: 1 (16.7) n (%)
- Patients with events: Vomiting [2, 11]: 2 (33.3) n (%)
- Patients with events: White blood cell count decreased [2, 11]: 1 (16.7) n (%)
- Patients with events: ALT increased [2, 12]: 1 (16.7) n (%)
- Patients with events: AST increased [2, 12]: 0 n (%)
- Patients with events: Anaemia [2, 12]: 1 (16.7) n (%)
- Patients with events: Any TEAE [2, 12]: 4 (66.7) n (%)
- Patients with events: Blood ALP increased [2, 12]: 1 (16.7) n (%)
- Patients with events: Blood creatinine increased [2, 12]: 0 n (%)
- Patients with events: Chest pain [2, 12]: 0 n (%)
- Patients with events: Constipation [2, 12]: 0 n (%)
- Patients with events: Decreased appetite [2, 12]: 0 n (%)
- Patients with events: Diabetes mellitus [2, 12]: 1 (16.7) n (%)
- Patients with events: Diarrhoea [2, 12]: 0 n (%)
- Patients with events: Fatigue [2, 12]: 0 n (%)
- Patients with events: Febrile neutropenia [2, 12]: 1 (16.7) n (%)
- Patients with events: GGT increased [2, 12]: 2 (33.3) n (%)
- Patients with events: Hypertension [2, 12]: 0 n (%)
- Patients with events: Malaise [2, 12]: 0 n (%)
- Patients with events: Nausea [2, 12]: 0 n (%)
- Patients with events: Platelet count decreased [2, 12]: 1 (16.7) n (%)
- Patients with events: Pyelonephritis [2, 12]: 1 (16.7) n (%)
- Patients with events: Thrombocytopenia [2, 12]: 1 (16.7) n (%)
- Patients with events: Vomiting [2, 12]: 0 n (%)
- Patients with events: White blood cell count decreased [2, 12]: 0 n (%)
- Patients who discontinued treatment due to a TEAE ([2]; cohort 1, 200 mg/day): no patient
- Treatment-related TEAE: decreased appetite ([2]; cohort 1, 200 mg/day): 2 n
- Patients with grade 3 treatment-related AEs ([2]; cohort 1, 200 mg/day, blood alkaline phosphatase increased, white blood cell count decreased): one patient
- Treatment-related TEAE: decreased appetite ([2]; cohort 1, 200 mg/day, listed as niraparib): 66.7%
- Patients with grade ≥ 3 treatment-related AEs ([2]; cohort 2, 300 mg/day): five patients
- Patients with treatment-related grade 3 alanine aminotransferase increased ([2]; cohort 2, 300 mg/day): one patient
- Patients with treatment-related grade 3 anaemia ([2]; cohort 2, 300 mg/day): two patients
- Patients with treatment-related grade 3 febrile neutropenia ([2]; cohort 2, 300 mg/day): one patient
- Patients with treatment-related grade 3 gamma-glutamyl transferase increased ([2]; cohort 2, 300 mg/day): one patient
- Total number of grade ≥ 3 treatment-related AEs ([2]; cohort 2, 300 mg/day): 11
- Treatment-related TEAE: aspartate aminotransferase increased ([2]; cohort 2, 300 mg/day): 5 n
- Treatment-related TEAE: platelet count decreased ([2]; cohort 2, 300 mg/day): 5 n
- Patients with dose-limiting toxicity (DLT) in cycle 1 [2]: 16.7%
- Patients with dose-limiting toxicity (DLT) in cycle 1 ([2]; grade 4 platelet count decreased): one patient
- Treatment-related TEAE: aspartate aminotransferase increased [2, 13]: 83.3%
- Treatment-related TEAE: platelet count decreased [2, 13]: 83.3%
- Patients who discontinued treatment due to a TEAE ([2]; cohort 2, 300 mg/day, malaise and gamma-glutamyl transferase increased): Two patients
- Patients with a serious AE ([2]; cohort 2, 300 mg/day, pyelonephritis, considered unrelated to niraparib): One patient
- Treatment-related TEAE: alkaline phosphatase increased [2, 14]: 50.0%
- Treatment-related TEAE: anaemia [2, 14]: 50.0%
- Treatment-related TEAE: nausea [2, 14]: 50.0%
- Dose dependence of mean Cmax and AUC0–24 ([3]; 200 and 300 mg/day, after multiple doses): increased dose-proportionally; also recorded: generally increased in a dose-proportional manner
- AUC(0-t) ([3]; human, plasma, 200 mg/day): 4930 ng·h/mL
- Cmax ([3]; human, plasma, 200 mg/day, plasma, Cycle 1 Day 1, Niraparib 200 mg/day (n = 3)): 443 ng/mL
- Cmax ([3]; human, plasma, 200 mg/day, plasma, Cycle 1 Day 21, Niraparib 200 mg/day (n = 3)): 729 ng/mL
- AUC(0-t) ([3]; human, plasma, 300 mg/day): 6270 ng·h/mL
- Cmax ([3]; human, plasma, 300 mg/day, plasma, Cycle 1 Day 1, Niraparib 300 mg/day (n = 6)): 530 ng/mL
- Cmax ([3]; human, plasma, 300 mg/day, plasma, Cycle 1 Day 21, Niraparib 300 mg/day (n = 4)): 1170 ng/mL
- Tmax ([3]; human, plasma, po, median tmax, single (cycle 1, day 1) and multiple (cycle 1, day 21) oral administration of niraparib 200 and 300 mg/day): 3 to 4 h
- Cmin ([3]; plasma, Cycle 1 Day 21, Niraparib 200 mg/day (n = 3)): 405.8 (267.8) ng/ml
- Cmin ([3]; plasma, Cycle 1 Day 21, Niraparib 300 mg/day (n = 4)): 592.3 (138.2) ng/ml
- progression-free survival (PFS) compared with placebo [4]: significantly prolonged
- tumour exposure at steady state [5]: high
- bioavailability after oral administration [6]: ~ 73%
- Patients with PD (progressive disease) ([7]; both cohorts): four
- Patients with partial response ([7]; both in cohort 2 (300 mg/day), lung cancer and bile duct cancer): Two patients
- Patients with PD (progressive disease) ([7]; cohort 1, 200 mg/day): All patients
- progression-free survival (PFS) compared with placebo ([8]; maintenance treatment, regardless of germline BRCA mutation status): significantly prolonged
- Patients requiring a dosage reduction to 200 mg once daily ([8]; starting dosage 300 mg once daily): ~ 70%
